Data on five molecules can be found in US11260079B2, “Dosing regimens for the mobilization of hematopoietic stem and progenitor cells” (Magenta Therapeutics, Inc., priority 2017, dated 2022).

In test [1] the test system is hematopoietic stem and progenitor cell mobilization. As to conditions: cited from earlier work; for potency of hematopoietic stem and progenitor cell mobilization relative to Gro-β: described in U.S. Pat. Nos. 6,080,398 and 6,447,766.
In test [2] the test system is stem and progenitor cells (LT-HSC). The experiment in a line: Mobilization of stem and progenitor cells in mice. It is filed as in vivo. The settings on record: 15 minutes after a single injection.
Test [3] concerns white blood cells, neutrophils, lymphocytes and monocytes. The settings on record: Rhesus monkeys; plerixafor 1 mg/kg subcutaneously; median value. The method, then: (§1) Male rhesus macaques were treated with AMD3100 alone or in combination with Gro-β T. Blood was collected immediately prior to and 0.5, 1, 2, 4 and 24 hours after treatment and analyzed by multicolor flow cytometry to quantitate HSPC numbers. Additional aliquots of mobilized blood were plated in methylcellulose and CFU were enumerated seven days later.
Animals were mobilized with AMD3100 alone or in combination with Gro-β T. Peripheral blood was collected at the time points shown and white blood cells enumerated on a HESKA Hematology Analyzer. Total number of white blood cells, neutrophils, lymphocytes and monocytes per μL of peripheral blood were determined. Data shown in FIGS. 2-5 are expressed as mean±SEM and represent 5 animals per group. Statistical significance was determined based on 2-way ANOVA with post-hoc Dunnett's multiple comparisons test (** p<0.01).

The subject of test [4] is NOD scid gamma (NSG) mice. Nature of the test: Xenograft GVHD model. As to conditions: for numbers of T-cells as compared to mice transplanted with Gro-β T and AMD3100-mobilized PBMCs: NSG mice, day 14 post-transplant; for mice died of aGVHD at day 24 / mice remained alive at day 60 post-transplant: sublethally irradiated NSG mice transplanted with 6×10^6 mobilized PBMCs. It counts as in vivo. The procedure:
To assess whether these immunosuppressive cells may prevent GVHD, we developed a xenograft GVHD model in NOD scid gamma (NSG) mice, which are immunodeficient mice. Gro-β T and AMD3100 mobilized peripheral blood (6×10^6 PBMCs) containing a high percentage of CD34^dim cells were injected into sublethally irradiated NSG mice. This was compared to unmobilized primate PBMCs (6×10^6 PBMCs) containing a relatively low numbers of CD34^dim cells and G-CSF mobilized primate PBMCs (6×10^6 PBMCs).

The subject of test [5] is CD34^+ hematopoietic stem and progenitor cells. The settings on record: Rhesus monkeys; plerixafor 1 mg/kg subcutaneously; median value. The method, then: as §1
The data shown in FIGS. 7 and 8 include the percentage of whole blood accounted for by CD34^+ hematopoietic stem and progenitor cells for each treatment group. Absolute numbers and fold change in CD34^+ cells per μL of peripheral blood were quantified with a single platform quantitative method. Data shown in FIGS. 7 and 8 are expressed as mean±SEM and represent 5 animals per group. Statistical significance was determined based on 2-way ANOVA with post-hoc Dunnett's multiple comparisons test (* p<0.05, ** p<0.01, **** p<0.0001).
The data shown in FIGS. 9 and 10 include the percentage of whole blood accounted for by CD34^+ CD90^+ CD45RA^− hematopoietic stem and progenitor cells for each treatment group. Absolute numbers and fold change in CD34^+ CD90^+ CD45RA^− cells per μL of peripheral blood are shown. Data shown in FIGS. 9 and 10 are expressed as mean±SEM and represent 5 animals per group. Statistical significance was determined based on 2-way ANOVA with post-hoc Dunnett's multiple comparisons test (* p<0.05. **p<0.01, *** p<0.001, **** p<0.0001).
Additional data summarizing the mobilization of CD34^+ cells (e.g., CD34^+ CD90^+ CD45RA^− cells) in Rhesus monkeys using various doses of Gro-beta T and AMD3100 are reported in TABLES 8-11, below. Quantities are reported in TABLES 8-11 using the following notation: “Median value (Minimum value observed−maximum value observed).”

Test [6] has as its system CD34^dim cells. The experiment in a line: Mobilization of CD34^dim cells, flow cytometry. It is filed as in vivo. As to conditions: Rhesus macaques; 4 hours after the last dose of G-CSF; n=3. The method, then:
Cells were mobilized according to the method of Example 1. A sample of peripheral blood was tested using a flow cytometer for the markers CD34, CD11b, CD14, CD16, CD45, and SSC.
Rhesus macaques were treated with Gro-β T, […], Gro-β T and AMD3100, or G-CSF alone. A sample of peripheral blood was tested using a flow cytometry.
(In flow cytometry, cells or beads pass a laser one at a time.)

Regarding “Gro-β N69D: variant of Gro-β with aspartic acid in place of asparagine at position 69 (SEQ ID NO: 3)”, in test [1], the “potency of hematopoietic stem and progenitor cell mobilization relative to Gro-β” value is listed as “superior potency”.

On to “Gro-β T: CXCR2 agonist; Gro-β with deletion of the first four amino acids from the N-terminus (SEQ ID NO: 2)”, for which, in test [2], the “mobilization of stem and progenitor cells” value is reported as “rapid mobilization”. The “potency of hematopoietic stem and progenitor cell mobilization relative to Gro-β” value in test [1] is given as “superior to that of Gro-β by multiple orders of magnitude”.

Take “Gro-β T N65D: variant of Gro-β T with aspartic acid in place of asparagine at position 65 (SEQ ID NO: 4)”: the “potency of hematopoietic stem and progenitor cell mobilization relative to Gro-β T” value in test [1] (described in U.S. Pat. No. 6,447,766) was “substantially greater than that of Gro-β T”.

`c1cc(CN2CCCNCCNCCCNCC2)ccc1CN1CCCNCCNCCCNCC1` [plerixafor, 1,1′-[1,4-phenylenebis(methylene)]-bis-1,4,8,11-tetra-azacyclotetradecane]: in test [3], the “Fold increase vs. baseline following sc administration of AMD3100: Lymphocytes” value is recorded as 2.5 fold, the “Fold increase vs. baseline following sc administration of AMD3100: Monocytes” value was determined as 7.9 fold, the “Fold increase vs. baseline following sc administration of AMD3100: Neutrophils” value was 5.0 fold and the “Fold increase vs. baseline following sc administration of AMD3100: WBCs” value was found to be 2.3 fold. For the same molecule, in test [3], the “Quantity of cells observed 4 hours following sc administration of AMD3100: Lymphocytes” value stood at 1.35E+07, the “Quantity of cells observed 4 hours following sc administration of AMD3100: Monocytes” value is reported as 3.10E+06, the “Quantity of cells observed 4 hours following sc administration of AMD3100: Neutrophils” value came to 2.10E+07 and the “Quantity of cells observed 4 hours following sc administration of AMD3100: WBCs” value worked out at 3.90E+07. Further, in test [4], the “numbers of T-cells as compared to mice transplanted with Gro-β T and AMD3100-mobilized PBMCs” value is given as “approximately 60 fold”; the “mice died of aGVHD at day 24” value is listed as 5/16; the “mice remained alive at day 60 post-transplant” value was 10/16. In test [5], the “Fold increase vs. baseline following sc administration of AMD3100: CD34^+” value came to 9.1 fold, the “Fold increase vs. baseline following sc administration of AMD3100: CD34^+ CD90^+ CD54RA^−” value stood at 14.9 fold, the “Quantity of cells observed 4 hours following sc administration of AMD3100: CD34^+” value was found to be 41054 and the “Quantity of cells observed 4 hours following sc administration of AMD3100: CD34^+ CD90^+ CD54RA^−” value is listed as 14820. In test [5], the “Ratio of fold increase of CD34^+ CD90^+ CD45RA^− cells to other cell populations: CD34^+” value came out at 1.4, the “Ratio of fold increase of CD34^+ CD90^+ CD45RA^− cells to other cell populations: Lymphocytes” value turned out to be 5.7, the “Ratio of fold increase of CD34^+ CD90^+ CD45RA^− cells to other cell populations: Monocytes” value was 1.6 and the “Ratio of fold increase of CD34^+ CD90^+ CD45RA^− cells to other cell populations: Neutrophils” value was found to be 3.0. In addition, in test [5], the “Ratio of fold increase of CD34^+ CD90^+ CD45RA^− cells to other cell populations: WBCs” value is reported as 3.7, the “Ratio of fold increase of CD34^+ cells to other cell populations: CD34^+ CD90^+ CD54RA^−” value amounted to 0.7, the “Ratio of fold increase of CD34^+ cells to other cell populations: Lymphocytes” value is 4.0 and the “Ratio of fold increase of CD34^+ cells to other cell populations: Monocytes” value turned out to be 1.2. For the same molecule, in test [5], the “Ratio of fold increase of CD34^+ cells to other cell populations: Neutrophils” value is 2.1, the “Ratio of fold increase of CD34^+ cells to other cell populations: WBCs” value worked out at 2.3, the “Ratio of quantity of CD34^+ CD90^+ CD45RA^− cells to other cell populations: CD34^+” value is 0.352 and the “Ratio of quantity of CD34^+ CD90^+ CD45RA^− cells to other cell populations: Lymphocytes” value stood at 0.0011. In test [5], the “Ratio of quantity of CD34^+ CD90^+ CD45RA^− cells to other cell populations: Monocytes” value came to 0.0039, the “Ratio of quantity of CD34^+ CD90^+ CD45RA^− cells to other cell populations: Neutrophils” value is reported as 0.0006, the “Ratio of quantity of CD34^+ CD90^+ CD45RA^− cells to other cell populations: WBCs” value stood at 0.0003 and the “Ratio of quantity of CD34^+ cells to other cell populations: CD34^+ CD90^+ CD54RA^−” value came out at 2.838. For the same molecule, in test [5], the “Ratio of quantity of CD34^+ cells to other cell populations: Lymphocytes” value worked out at 0.0025, the “Ratio of quantity of CD34^+ cells to other cell populations: Monocytes” value was 0.0111, the “Ratio of quantity of CD34^+ cells to other cell populations: Neutrophils” value was 0.0015 and the “Ratio of quantity of CD34^+ cells to other cell populations: WBCs” value was 0.0009.

B1: G-CSF: Filgrastim (G-CSF), most common clinical hematopoietic stem cell mobilization protocol (protein, chains of the INN, looked up)
chain: MTPLGPASSLPQSFLLKCLEQVRKIQGDGAALQEKLCATYKLCHPEELVLLGHSLGIPWAPLSSCPSQALQLAGCLSQLHSGLFLYQGLLQALEGISPELGPTLDTLQLDVADFATTIWQQMEELGMAPALQPTQGAMPAFASAFQRRAGGVLVASHLQSFLEVSYRVLRHLAQP
As to B1, in test [6], the “increase over baseline in the number of CD34^dim cells” value was “about a nine-fold increase”. In test [4], the “numbers of T-cells as compared to mice transplanted with Gro-β T and AMD3100-mobilized PBMCs” value is recorded as “approximately 10 fold”; the “mice died of aGVHD at day 24” value is on record as 3/16; the “mice remained alive at day 60 post-transplant” value is reported as 11/16.
